Results on twelve molecules are retold here after paper PMC8400540, “Synthesis, Biological Evaluation, and In Silico Studies of New Acetylcholinesterase Inhibitors Based on Quinoxaline Scaffold” (Molecules, 2021).

Data set [1] has as its target T1, human recombinant acetylcholinesterase (HuAChE) (Homo sapiens, UniProt P22303).
T1 construct: purchased Sigma-Aldrich
Nature of the data set: biochemical. The conditions noted are these: for Selectivity BChE/AChE: Selectivity index for AChE: IC50 BChE/IC50 AChE.

For data set [2], the target named is T2, butyrylcholinesterase from equine serum (EqBChE) (Equus caballus, UniProt P81908).
T2 construct: butyrylcholinesterase from equine serum (eqBChE); purchased Sigma-Aldrich; host or cells: equine serum
Briefly: biochemical. The class given is biochemical. The following applies: for inhibition at 100 µM / IC50: mean ± SD; for inhibition at 100 µM: n = three, read-out: %Inhibition BChE; for butyrylcholinesterase inhibitory activity (in words): screened at 100 µM; for IC50: EqBChE, n = three independent experiments. As for the experimental part: Initially, acetylcholinesterase and butyrylcholinesterase inhibitory activities of the compounds were screened at the concentration of 100 µM. […] The raw data of IC50 in this study were able to be accessed in Supplementary Materials.
Human recombinant acetylcholinesterase (HuAChE), butyrylcholinesterase from equine serum (eqBChE), acetylthiocholine iodide (ATCI), butyrylthiocholine iodide (BTCI) and 5,5′-dithiobis(2-nitrobenzoic acid) (DTNB) were gained from Sigma-Aldrich. Assays of acetyl- and butyrylcholinesterase inhibitory activity were performed according to Ellman’s method described previously. Briefly, these assays were performed as follows. The reaction mixture (250 µL), containing 50 µL of buffer (50 mM Tris-HCl buffer (pH 8.0), 0.1 M NaCl, 0.02 M MgCl2.6H2O), 25 µL of 1.5 mM of ATCI or BTCI, 25 µL of 100 µM of test compounds in EtOH and 125 µL of 3 mM DTNB were added. Then, 25 µL of HuAChE and equine serum of BChE in 50 mM Tris-HCl buffer containing 0.1% (w/v) BSA (pH 8.0). Reactions were initiated by the addition of the enzyme into the medium. […] Each experiment was repeated in triplicate.
The percentage of enzyme inhibitory activity (%Inhibition) was calculated by the following expression: %Inhibition = ((Mean velocity of blank-Mean velocity of sample) × 100)/Mean velocity of blank.

Data set [3] concerns the target T3, Human recombinant AChE (Homo sapiens, UniProt P22303).
T3 construct: purchased Sigma-Aldrich
Nature of the data set: Enzyme kinetic study of AChE inhibition (Lineweaver-Burk). In kind it is biochemical. As for the experimental part: […]. The kinetic assay of AChE inhibition was carried out at 0, 30, 50 and 60 µM of compound 6c. […]. [ATCI], substrate concentration (µM); V, reaction velocity (1/V (abs/min)^−1).
Kinetic studies of HuAChE were performed by Ellman’s method as described above. […]. Kinetic characterization of the hydrolysis of ATCI for HuAChE was carried out spectrometrically at 405 nm every 11 s for 2 min. A parallel control was run with the assay solution without inhibitor. The inhibition was evaluated by Lineweaver–Burk plot from substrate concentrations range between 10 to 250 µM for ATCI and inhibitor concentrations (0, 30, 50, 60 µM). The type of inhibition (competitive, uncompetitive, noncompetitive and mixed type inhibition) was calculated from the Michaelis–Menten equation was converted to Lineweaver–Burk equation into a straight line by plotting 1/velocity opposite to 1/[S]. Graphs were plotted by means of GraphPad Prism 7.03 for Windows (GraphPad Software, San Diego, CA, USA, www.graphpad.com, accessed on 13 May 2021).
From obtained equations of regression curves in the Lineweaver-Burk plot, the values of maximum velocity (Vm) and Michealis constant (Km) were calculated. Using non-linear regression (selected panel: enzyme kinetic inhibition/ mixed model inhibition) the values of Ki and alpha were determined. The alpha value defines the mechanism. […]

Data set [4] in a line: Cytotoxicity, sulforhodamine B (SRB) assay. The class given is cell-based. The following applies: human, SH-SY5Y neuroblastoma cells, up to 100 µM, read-out: LC50. As for the experimental part:
Selected compounds in the series were then evaluated for their cytotoxicity against SH-SY5Y neuron cells. […].
Figure 3 The cytotoxic effect of synthesized compounds on SH-SY5Y cells as determined by SRB assay. Cells were treated with the synthesized compounds at different concentrations for 48 h, and then SRB assay was performed. Data are means ± SD of three independent experiments, and %cell viability was calculated relative to nontreated control.
The cytotoxicity assay of the tested compounds against human SH-SY5Y neuroblastoma cells was measured using a sulforhodamine B (SRB) assay. The cells were cultured in Dulbecco’s modified Eagle’s medium supplemented with 10% fetal bovine serum (Gibco, Paisley, UK) and grown at 37 °C in a humid atmosphere containing 5% CO2. Cells (10,000 cells/well) were seeded in a 96-well plate and incubated at 37 °C, 5% CO2 for 24 h. The cells were then treated with or without various concentrations (0, 3.125, 6.25, 12.5, 25, 50, and 100 μM) of each compound for 48 h. After an incubation period, 40% (w/v) trichloroacetic acid (TCA) was added to the cells, and the cells were then incubated at 4 °C for 1 h. A total of 0.4% (w/v) SRB solution (100 μL) was added to each well, and the cells were incubated for 1 h at room temperature. The SRB solution was removed, and then the cells were washed three times with 1% (v/v) acetic acid, and they were allowed to dry at room temperature. The protein-bound dye was dissolved with 10 mM Tris base solution, and the absorbance was measured at 492 nm using a microplate reader.

Where [5] appears, read: HuAChE, mean ± SD, n = three independent experiments, read-out: IC50 AChE.

Where two headings read alike, the source gives them in different places.

T2 sequence (P81908 whole entry): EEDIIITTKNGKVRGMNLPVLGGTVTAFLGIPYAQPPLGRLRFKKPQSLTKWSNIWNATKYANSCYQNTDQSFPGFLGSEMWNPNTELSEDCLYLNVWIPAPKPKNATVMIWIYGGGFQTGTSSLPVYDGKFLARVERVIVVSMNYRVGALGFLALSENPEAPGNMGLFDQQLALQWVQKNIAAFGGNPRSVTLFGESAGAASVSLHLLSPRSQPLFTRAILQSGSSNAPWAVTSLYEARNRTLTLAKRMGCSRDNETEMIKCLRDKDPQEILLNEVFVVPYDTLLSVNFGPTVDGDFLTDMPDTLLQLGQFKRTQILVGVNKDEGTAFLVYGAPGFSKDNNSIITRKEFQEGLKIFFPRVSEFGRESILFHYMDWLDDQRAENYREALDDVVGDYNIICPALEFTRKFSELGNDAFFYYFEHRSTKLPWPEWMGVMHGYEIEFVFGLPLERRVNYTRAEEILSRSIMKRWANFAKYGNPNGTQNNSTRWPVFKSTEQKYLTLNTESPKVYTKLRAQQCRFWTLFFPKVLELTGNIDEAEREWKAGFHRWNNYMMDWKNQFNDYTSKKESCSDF
T1 sequence (P22303 32-614): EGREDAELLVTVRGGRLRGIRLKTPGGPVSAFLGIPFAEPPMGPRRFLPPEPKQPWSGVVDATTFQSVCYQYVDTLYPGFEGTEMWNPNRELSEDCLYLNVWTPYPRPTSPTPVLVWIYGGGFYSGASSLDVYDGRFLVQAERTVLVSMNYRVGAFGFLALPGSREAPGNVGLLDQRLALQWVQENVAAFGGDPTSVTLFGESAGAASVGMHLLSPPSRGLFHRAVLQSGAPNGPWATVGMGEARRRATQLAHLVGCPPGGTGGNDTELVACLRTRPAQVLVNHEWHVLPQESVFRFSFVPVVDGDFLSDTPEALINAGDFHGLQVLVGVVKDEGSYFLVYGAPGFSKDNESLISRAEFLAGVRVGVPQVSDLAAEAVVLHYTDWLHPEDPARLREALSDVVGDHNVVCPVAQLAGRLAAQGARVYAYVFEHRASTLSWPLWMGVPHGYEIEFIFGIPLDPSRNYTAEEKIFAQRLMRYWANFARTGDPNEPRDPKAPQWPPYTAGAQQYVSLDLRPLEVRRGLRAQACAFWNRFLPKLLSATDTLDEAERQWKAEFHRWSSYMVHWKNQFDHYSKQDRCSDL
T3 sequence (P22303 32-614): as above

In the case of `Cc1nc2ccccc2nc1C` [Compound 3c, 2,3-Dimethylquinoxaline], the IC50 in data set [1] was 7.25 ± 1.5 µM. Besides, in data set [2], the inhibition at 100 µM amounted to 23.4% and the “butyrylcholinesterase inhibitory activity (in words)” value is on record as “no activity”.
`Clc1ccc2ncc(-c3ccccc3)nc2c1` [Compound 4b, 7-Chloro-2-phenylquinoxaline]: the IC50 in data set [1] (setting [5]) stood at 28.5 ± 1.6 µM. The inhibition at 100 µM in data set [2] is 41.2%.
As to `c1ccc2nccnc2c1` [Compound 3a, Quinoxaline], in data set [1], the IC50 turned out to be 13.2 ± 4.1 µM and the “Selectivity BChE/AChE” value stood at 3.07. The same molecule returned an IC50 in data set [2] of 40.6 ± 1.6 µM.
Regarding `Cc1nc2ccc(N)cc2nc1C` [Compound 6c, 2,3-Dimethylquinoxalin-6-amine], the IC50 in data set [1] (setting [5]) is 0.077 ± 0.01 µM. Besides, the “type of AChE inhibition” value in data set [3] (Lineweaver-Burk plot) is on record as “mixed-type inhibitor”. In data set [3] (non-linear regression, mixed model inhibition), the Alpha turned out to be 0.1875. In addition, in data set [4], the CC50 at 48 h is over 100 µM. Also, in data set [2], the inhibition at 100 µM was found to be 29.2% and the “butyrylcholinesterase inhibitory activity (in words)” value is “no activity”.
As to `Cc1nc2ccc([N+](=O)[O-])cc2nc1C` [Compound 5c, 2,3-Dimethyl-6-nitroquinoxaline], the IC50 in data set [1] (setting [5]) was 8.42 ± 1.8 µM. In data set [2], the inhibition at 100 µM turned out to be 32.1% and the “butyrylcholinesterase inhibitory activity (in words)” value is given as “no activity”.
With `O=[N+]([O-])c1ccc2ncc(-c3ccccc3)nc2c1` [Compound 5b, 7-Nitro-2-phenylquinoxaline], the figures for the IC50 in data set [1] (setting [5]) and in data set [2] were 39 ± 0.8 µM and 61 ± 3.4 µM, respectively. In addition, the “Selectivity BChE/AChE” value in data set [1] is reported as 1.56.
As to `Clc1ccc2nccnc2c1` [Compound 4a, 6-Chloroquinoxaline], in data set [1], the IC50 is 23.9 ± 1.3 µM. The inhibition at 100 µM in data set [2] amounted to 37.4%.
As for `Nc1ccc2ncc(-c3ccccc3)nc2c1` [Compound 6b, 3-Phenylquinoxalin-6-amine], the IC50 in data set [1] (setting [5]) turned out to be 1.31 ± 0.2 µM. Further, in data set [4], the CC50 at 48 h was over 100 µM. Further, the inhibition at 100 µM in data set [2] was 44.1%.
Take `c1ccc(-c2cnc3ccccc3n2)cc1` [Compound 3b, 2-Phenylquinoxaline]: the IC50 stood at 50.1 ± 2.6 µM in data set [1] (setting [5]) and 14.9 ± 2.6 µM in data set [2]. The “Selectivity BChE/AChE” value in data set [1] was 0.29.
In the same order, the values of `O=[N+]([O-])c1ccc2nccnc2c1` [Compound 5a, 6-Nitroquinoxaline] are 21.3 ± 1.5 µM, 42 ± 1 µM and 1.97.
Consider `Cc1nc2ccc(Cl)cc2nc1C` [Compound 4c, 6-Chloro-2,3-dimethylquinoxaline], for which the IC50 in data set [1] (setting [5]) is 10.7 ± 1.4 µM. Further, in data set [2], the inhibition at 100 µM was determined as 37.4% and the “butyrylcholinesterase inhibitory activity (in words)” value is reported as “no activity”.
As to `Nc1ccc2nccnc2c1` [Compound 6a, Quinoxalin-6-amine], the IC50 in data set [1] came to 0.74 ± 0.5 µM. In addition, the CC50 at 48 h in data set [4] is over 100 µM. For the same molecule, the inhibition at 100 µM in data set [2] amounted to 32.9%.
